Here are results for 1 substance from patent publication US20130097725A1, “SOYBEAN NODULATION FACTOR RECEPTOR PROTEINS, ENCODING NUCLEIC ACIDS AND USES THEREFOR” (The University of Queensland, priority 2005, published 2013).

Marks after values point to notes of the source that are not given here.

For assay [1], the system named is soybean plants (nod49, nod139, Bragg). The assay can be described thus: Interaction of B. japonicum inoculum titer and Nod Factor on nodule number. Type of assay: in vivo, Glycine max. The following applies: for nodule number: nod49, Plus NF 10^−8 M, 35 days. The text has this:
We tested this phenomenon by inoculating nod49 plants with different titers of B. japonicum CB1809 and observed increased partial nodulation success per plant with elevated rhizobial concentration. […] Since infection thread formation is essential for the progression of early CCDs (FIG. 4B), mutations in GmNFR1α result in non-nodulation. Thus GmNFR1α mutants, when exposed to high NF levels, form nodules via normal infection, showing that GmNFR1β suffices for all early nodule ontogeny steps.

For assay [2] the test system is unchanged. Described as above. The following applies: Plus NF 10^−8 M, 35 days. Type of assay: in vivo, Glycine max.

NodV-MeFuc [NF]: the nodule number is 0.0 ^a in assay [1] (B. japonicum CB1809 10^3 cfu·ml^−1); 0.7 ± 0.2 ^b in assay [1] (B. japonicum CB1809 10^7 cfu·ml^−1); 2.3 ± 0.4 ^c in assay [1] (B. japonicum CB1809 10^10 cfu·ml^−1); 82.5 ± 5.0 ^d in assay [2] (Bragg, B. japonicum CB1809 10^3 cfu·ml^−1); 101.4 ± 8.5 ^e in assay [2] (Bragg, B. japonicum CB1809 10^7 cfu·ml^−1); 104.2 ± 6.9 ^e in assay [2] (Bragg, B. japonicum CB1809 10^10 cfu·ml^−1). Moreover, the nodule number is listed as 0.0 ^a in assay [2] (nod139, B. japonicum CB1809 10^3 cfu·ml^−1); 0.0 ^a in assay [2] (nod139, B. japonicum CB1809 10^7 cfu·ml^−1); 0.2 ± 0.2 ^a in assay [2] (nod139, B. japonicum CB1809 10^10 cfu·ml^−1). The “nodulation on addition of NF to the nutrient medium” value in assay [1] (nod49 mutant plants, NF 10 nM) is on record as “significantly increased”.
